Data published in the METLIN SMRT retention time set (Domingo-Almenara et al. 2019).

Test: gradient 5% acetonitrile 3 min, to 50% in 2 min, to 85% in 15 min, held 3 min, 100 µL/min
Details: column: Zorbax Extend-C18 2.1 x 50 mm; eluents: water / acetonitrile, 0.1% formic acid
Outline: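 Values are retention times taken from adduct peaks that software picked and an analyst inspected. The pure standards were run as mixtures of ~100 molecules on HPLC linked to a quadrupole time-of-flight mass spectrometer, in positive and negative ionization mode. A Zorbax Extend-C18 column (2.1 × 50 mm, 1.8 μm) was used at 100 μL/min with water and acetonitrile, each including 0.1% formic acid.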

| SMILES | RP-LC retention time |
| --- | --- |
| COc1ccccc1/C=C/c1nc(-c2ccc3oc(C)nc3c2)no1 | 1080 s |
| COCCNC(=O)c1nc(N2CCSCC2)c2c(C)cc(C)nc2n1 | 591 s |
| CCOC(=O)c1c(C)c(CCC(=O)N2CCN(c3ccccn3)CC2)n(C)c1C | 616 s |
| Cc1ccc2nc(N3CCN(c4ccc(F)cc4)CC3)c(-c3noc(C)n3)cc2c1 | 732 s |
| O=C(NC1CC1)c1cn(CCC2CCCCN2C(=O)C2CC2)nn1 (stereo not drawn) | 636 s |
| CCC(=O)N(C)CCc1noc(-c2ccc(C(=O)NCCC(C)C)cc2)n1 | 806 s |
| COC[C@@H](NC(C)=O)C(=O)NCc1ccccc1 | 641 s |
| Cc1ccccc1-c1nc(-c2ccc(-n3ccnc3)nc2)no1 | 814 s |
| CC(=O)Nc1ccc(OCC(O)CN2CCC(Cc3ccccc3)CC2)cc1 (stereo not drawn) | 577 s |
| COCCOCc1nc(C2CCCN2S(=O)(=O)Cc2ccccc2)no1 (stereo not drawn) | 748 s |
| CCCCc1ccc(NC(=O)N2CCCC2c2nncn2C2CCCC2)cc1 (stereo not drawn) | 864 s |
| c1ccc(-c2nc(-c3ccnc(N4CCOCC4)c3)no2)cc1 | 942 s |
| COc1ccc(-c2nc(COc3cc(C(F)(F)F)c4c(C)nn(C)c4n3)c(C)o2)cc1OC | 1190 s |
| CCCNC(=O)N(C)CCc1noc(COc2ccc(Cl)cc2)n1 | 833 s |
| COc1ccc(-c2cn3c(CC(=O)N4CCN(c5ccccc5)CC4)csc3n2)cc1OC | 730 s |
| O=C1C(c2ccncc2)N(CCCc2ccccc2)C(=O)CN1c1ccccc1 (stereo not drawn) | 719 s |
| O=C(c1cnccn1)N1CCC(F)(F)C(COCC2CC2)C1 (stereo not drawn) | 786 s |
| CCOc1ccc(NC(=O)C2CCN(c3cc(Oc4ccc(CC)cc4)ncn3)CC2)cc1 | 1080 s |

| SMILES | RP-LC retention time |
| --- | --- |
| CCC(CC)C(=O)N1CCC2(CC1)CN(C)CC2c1nc(-c2ccncc2)n[nH]1 (stereo not drawn) | 565 s |
| COc1ccccc1N1CCN(CC(O)c2ccc3c(c2)OCO3)CC1 (stereo not drawn) | 631 s |
| CC(C)NC(=O)c1ccc(OCC2CCCN(C(=O)c3ccc(C#N)cc3)C2)cc1 (stereo not drawn) | 800 s |
| COc1ccc(-n2nnc(-c3nc(-c4ccccc4OC)cs3)c2N)cc1 | 1090 s |
| COc1ccc(CN(Cc2ccccc2)Cc2cc(=O)n3cc(C)ccc3n2)cc1 | 696 s |
| O=C(C1CC1)N1c2ccccc2CC1c1nc(C2CC2)no1 (stereo not drawn) | 908 s |
| COc1ccc(-c2coc3cc(OCc4ccc([N+](=O)[O-])cc4)ccc3c2=O)cc1OC | 991 s |
| O=C(NCc1nc(-c2ccccc2)no1)c1csc(-n2cccc2)n1 | 894 s |
| O=C(C1CCCO1)N1CCC(OCc2nc(-c3ccccc3)no2)CC1 (stereo not drawn) | 778 s |
| CCC1CN2C=NC(N3CCN(C(=O)c4ccoc4)CC3)=CC2=N1 (stereo not drawn) | 575 s |
| O=C(c1ccc(F)cc1)N1CCN(c2ccc(N3CCCC3)nn2)CC1 | 604 s |
| CCOc1ccc(-c2c(C#N)c(N)nc(SCC(=O)OCc3ccccc3)c2C#N)cc1 | 997 s |
| CN(C(=O)C1CCCN(c2ncnc3c2nc2n3CCCCC2)C1)c1ccccc1Cl (stereo not drawn) | 846 s |
| FC1(c2nc(Cc3ccccc3)no2)CCN(Cc2ccsc2)CC1 | 708 s |
| CCCCOc1ccc(-c2cc3c4nnc(CCC(=O)NCCc5cccs5)n4ccn3n2)cc1 | 943 s |
| COc1ccc(OCc2nc(CCN(C)C(=O)COc3ccccc3)no2)cc1 | 852 s |
| O=C(c1ccco1)N1CCC(F)(C(=O)N2CCCC2)CC1 | 653 s |
| CCSC1=NCCN1C(=O)C(C)(C)Oc1ccc(Cl)cc1 | 770 s |

Other lines, results leading:

| RP-LC retention time | SMILES |
| --- | --- |
| 578 s | CNC(=O)[C@@H]1CN(C(=O)Cn2c(=O)oc3ccccc32)C[C@H]1c1n[nH]c(C)n1 |
| 620 s | CC1CCCN(CCCNC(=O)c2nc(CCS(=O)(=O)c3ccc(F)cc3)no2)C1 (stereo not drawn) |
| 1090 s | Cc1cc(C)n(-c2nc(C)c(C(=O)N3CCc4ccccc4C3)s2)n1 |
| 953 s | CN(CCc1noc(COc2ccccc2)n1)C(=O)Nc1ccccc1C(F)(F)F |
| 738 s | Cc1cccc(-n2c(N)cc(=O)nc2SCC(=O)Nc2nc(-c3ccccc3)cs2)c1 |
| 1140 s | Cc1cccc(-c2nnc(-c3cccc(S(=O)(=O)N4CCCCC4)c3)o2)c1 |
| 807 s | CCCCNc1nc(-c2ccc(OC)cc2)nc2ccccc12 |
| 1260 s | CN(C1CCCCC1)S(=O)(=O)c1ccc(C(=O)Nc2nc3c(s2)Cc2ccccc2-3)cc1 |
| 925 s | CCn1cc(-c2nc(C)c(C(=O)NCc3ccc4c(c3)OCO4)s2)c2cccnc21 |
| 1130 s | O=C(CN1CCCCC1c1nc(-c2cccc(F)c2)no1)Nc1ccc(F)cc1 (stereo not drawn) |
| 591 s | O=C(Nc1cccnc1)C1CCN(S(=O)(=O)c2cccnc2)CC1 |
| 686 s | CC(=O)Nc1ccc(NC(=O)C2CCN(S(=O)(=O)c3ccc4c(c3)sc(=O)n4C)CC2)cc1 |
| 786 s | CCn1cc(C(CNC(=O)Nc2cccc(SC)c2)c2cccnc2)c2ccccc21 (stereo not drawn) |
| 1420 s | COC(=O)c1ccc2c(=O)n(-c3cc(C)cc(C)c3)c(N3CCC(C)CC3)nc2c1 |
| 717 s | O=C(COc1ccc(F)c(F)c1)Nc1cnc(-c2cccnc2)nc1 |
| 616 s | Cc1nnc(N2CCCC(C(=O)NCCCN3CCCC3=O)C2)c2nn(-c3ccccc3)c(C)c12 (stereo not drawn) |
| 869 s | CC(C)n1cc(S(=O)(=O)Nc2ccc(F)cc2)c2cccnc21 |
| 893 s | COc1ccc(C2CC(=O)N(c3ccc(C)c(C)c3)C(=O)C2)cc1OC |
| 669 s | CC(C)C(=O)Nc1ccc(CCc2nc3ccc(C(=O)NCc4ccc5c(c4)OCO5)cc3[nH]2)cc1 |
| 715 s | Cc1ccc(S(=O)(=O)N2CCC(CCNC(=O)NCCC(C)C)CC2)cc1 |
| 549 s | Cc1[nH]c(=O)[nH]c(=O)c1CC(=O)Nc1cccc(NS(C)(=O)=O)c1 |
| 543 s | Cc1oc(-c2[nH]ncc2C(=O)N(C)C)cc1S(=O)(=O)NCCN1CCOCC1 |
| 1020 s | CCOCc1cc(OC)c(-c2ccc(C[C@H](NC(=O)c3c(F)cccc3F)C(=O)O)cc2)c(OC)c1 |
| 893 s | COc1cc2c(cc1CNC(=O)Cn1cc(C(=O)C(C)C)c3ccccc31)OCCCO2 |
| 627 s | Cc1ccc(NC(=O)N2CCN(C3=CC4=NC(C)CN4C=N3)CC2)c(C)c1 (stereo not drawn) |
| 963 s | Cc1cc(F)ccc1NS(=O)(=O)c1ccc(-c2nnc(C3CCC3)o2)o1 |

| RP-LC retention time | SMILES |
| --- | --- |
| 723 s | COc1cccc(CNC(=O)NCCc2nc3cccnc3n2Cc2ccccc2)c1 |
| 752 s | Cc1sc(NC(=O)CCCC(=O)O)nc1-c1ccccc1 |
| 1270 s | CCCCCn1c(=O)c2ccccc2n(Cc2nc(-c3cc(OC)cc(OC)c3)no2)c1=O |
| 830 s | CCOC(=O)COc1cc(-c2ccc(C)cc2)nc2ccc(NC(=O)c3cccs3)cc12 |
| 945 s | CCc1ccc2c(c1)cc(S(=O)(=O)c1ccccc1)c(=O)n2CC(=O)NC(C)CC (stereo not drawn) |
| 923 s | Cc1noc(-c2cc(=O)n(CC(=O)Nc3cccc(Cl)c3C)c3ccccc23)n1 |
| 1060 s | CCCCN1C(=O)C(C)(C(=O)Nc2ccc(OCC)cc2)Oc2cccnc21 (stereo not drawn) |
| 1200 s | CCOC(=O)c1noc2nc(C)nc(Nc3ccc(Cl)cc3)c12 |
| 812 s | COC(=O)c1c(NC(=O)c2cnn(-c3ccccc3)c2C)sc2c1CCN(C(C)=O)C2 |
| 616 s | COCCN1C(=O)[C@H]2CN(Cc3ccc(OC)c(Br)c3)C[C@H]2C1=O |
| 864 s | Cc1ccc(C)c(NS(=O)(=O)c2cc3c(s2)CCN(C(=O)C2CC2)C3)c1 |
| 661 s | COc1ccc(-c2nc3cnccn3c2Nc2ccc(C(=O)NC(C)C)cc2)cc1OC |
| 960 s | COc1cccc(CNC(=O)c2c(C)sc3ccn(CC(C)C)c(=O)c23)c1 |
| 694 s | CN1CCN(S(=O)(=O)c2cccc(-c3nc(-c4ccccc4)no3)c2)CC1 |
| 941 s | CCc1nc2c(NC(=O)c3ccc(Cl)s3)cccn2n1 |
| 802 s | Cc1nn(-c2ccc(Nc3ccc(NC(=O)c4ccccc4F)cc3)nn2)c(C)c1C |
| 794 s | Cc1ccc(-c2ccc3nnc(CCC(=O)NCc4ccccc4C(F)(F)F)n3n2)cc1 |
| 740 s | CCCc1nc(NCc2ccc(OC)c(OC)c2)ncc1C(=O)O |
| 977 s | COc1cc(OC)cc(-c2nc(C3CC(=O)N(c4ccc(F)cc4)C3)no2)c1 (stereo not drawn) |
| 983 s | Cc1ccc(NC(=O)C2CCCN(S(=O)(=O)c3cc(-c4noc(C)n4)cs3)C2)c(C)c1 (stereo not drawn) |
| 1020 s | CC1CCC(NC(=O)C2CCN(S(=O)(=O)c3ccc4c(c3)sc(=O)n4C(C)C)CC2)CC1 (stereo not drawn) |
| 983 s | CCCCS(=O)(=O)N1CCc2nc(-c3ccc(OC)cc3)ncc2C1 |
| 1080 s | Cc1cc(NC(=O)Cn2c(-c3ccc(F)cc3)ncc(C#N)c2=O)ccc1Br |
| 750 s | CCOC(=O)C1CCN(C(=O)c2cc(=O)c(OCc3ccc(F)cc3)cn2C)CC1 |
| 897 s | CCOC(=O)c1noc2nc(C)nc(NCCCN(C)c3ccccc3)c12 |
| 626 s | Cc1ccc(CNC(=O)C2=CCN(Cc3cccc(F)c3)CC2)o1 |
